Test results taken from patent publication US20230146675A1, “PYRIMIDO[5,4-d]PYRIMIDINE DERIVATIVES AS ENT INHIBITORS FOR THE TREATMENT OF CANCERS, AND COMBINATION THEREOF WITH ADENOSINE RECEPTOR ANTAGONISTS” (ITEOS BELGIUM SA, priority 2020, published 2023).
Read-outs that look alike come from different tables or passages of the source.

Columns and labels:
[1] = molecular target: T1, human ENT1 (Homo sapiens, UniProt Q99808); assay: Uridine transport inhibition assay (3H-uridine uptake, MDCKII-ENT1-LV cells); assay type: cell-based; conditions: 3H-uridine (1 μM), 1 min at 25° C.
T1 sequence (Q99808 1-456): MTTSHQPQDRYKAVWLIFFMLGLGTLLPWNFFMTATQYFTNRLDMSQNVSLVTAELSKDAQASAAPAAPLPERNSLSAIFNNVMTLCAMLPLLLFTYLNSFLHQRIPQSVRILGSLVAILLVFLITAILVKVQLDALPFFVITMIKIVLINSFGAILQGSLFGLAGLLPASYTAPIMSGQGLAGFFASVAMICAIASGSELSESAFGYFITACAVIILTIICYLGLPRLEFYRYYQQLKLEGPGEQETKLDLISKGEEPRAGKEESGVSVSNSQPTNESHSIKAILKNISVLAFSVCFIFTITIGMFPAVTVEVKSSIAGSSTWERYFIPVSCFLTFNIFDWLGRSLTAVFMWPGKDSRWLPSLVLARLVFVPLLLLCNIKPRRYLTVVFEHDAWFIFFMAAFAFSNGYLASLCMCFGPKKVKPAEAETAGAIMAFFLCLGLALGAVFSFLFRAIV
From the text: Purpose. The aim of this study was to determine the potency of equilibrative nucleoside transporter 1 (ENT1) inhibitors by measuring ENT1-mediated transport is the cellular uptake assay. The human ENT1 transporter can be stably expressed in Madin-Darby Canine Kidney II (MDCKII) cells via transduction. Uridine is efficiently transported by ENT1 and is used as probe in the assay as 3H-uridine. The interaction is detected as the modulation of the initial rate of 3H-uridine transport by human ENT1 into MDCKII-ENT1-LV cells stably expressing ENT1 uptake transporter.

[2] = tested on: stimulated primary human T cells; assay: T cell proliferation assay (rescue of proliferation in presence of 100 uM ATP); assay type: cell-based
Procedure: Purpose. The aim of this study was to determine the potency of equilibrative nucleoside transporter 1 (ENT1) inhibitors to rescue proliferation by stimulated primary human T cells incubated in the presence of 100 uM Adenosine triphosphate (ATP) with: • Condition A: X-VIVO15 • Condition B: X-VIVO15, 2% Human Serum Albumine (HSA) and 0.1% α-1-Acid Glycoprotein (AAG)
Method. Cryopreserved purified human CD3+ T cells were thawed and washed twice with RPMI1640 medium, UltraGlutamine containing 10% hiFBS.
Cells were suspended in PBS containing 10% hiFBS. Cells were stained with CFSE by adding 2 μM solution in PBS, to get a final 1 μM CFSE solution. Cells were incubated while rotating for 5 minutes. Reaction was stopped by adding PBS with 10% FBS and cells were centrifuged for 5 minutes at 1500 rpm.
Cells were resuspended at 1.6×10^6 cells/mL, either in X-VIVO15 medium or in 4% Human Serum Albumin and 0.2% α-1-Acid Glycoprotein. 50 μL of cell suspension (8×10^4 T cells) was added to wells of sterile round-bottom 96-well plates. Cells were activated by adding 50 μL of anti-CD3 anti-CD28 coated microbeads, suspended either in XVIVO-15 medium or in 4% HSA and 0.2% α-1-Acid Glycoprotein, at a ratio of one microbead per two cells.
Serial dilutions of the ENT1 inhibitors were prepared in X-VIVO15 from 10 mM stock solutions in DMSO, and 50 μL was added to the wells.
ATP powder was diluted in X-VIVO15, and 50 μL of this compound was added to the wells to reach a final assay concentration of 100 μM. Final volume of 200 μL.
The experiments were also performed in 384 well plates—all volumes reduced by a factor of 4 ([…]) with a final volume of 50 μL.
Experiments were performed in duplicate. The cells were placed in a 37° C. humidified tissue culture incubator with 5% CO2 for 72 hours for 96 well plates, 96 hours for 384 well plates. After 72 or 96 hours, proliferation was measured determined by CFSE dilution via flow cytometry.
Results. Compounds of the invention have good ENT1 inhibitory properties.

[3] = molecular target: T1, human ENT1; assay: ENT1 binding assay (competition with Sahenta-DY647 on JAR cells); parameters: JAR cells expressing ENT1 were bought from ATCC; host or cells: JAR cells; conditions: binned IC50
Method in brief: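 JAR cells were incubated with test compounds and the fluorescent ligand Sahenta-DY647 in competition. Plates were washed twice by centrifugation (4 min, 400 rcf, 4 °C). Binding potency was derived from the final fluorescence.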

[4] = tested on: human alpha 1-acid glycoprotein (AAG); assay: AAG binding assay - HPLC assay
Procedure: Purpose. […] The principle of the assay is a liquid chromatography on a human AAG protein immobilized onto a silica support for separations of compounds following their affinity to AAG protein. By measuring the retention time, the binding to AAG can be determined relatively to the references.
Method. […] Mobile Phase A: 50 mM Ammonium acetate in deionized water; Mobile Phase B: Isopropanol; Column Oven: 8° C.; PDA(nm): 230; Flow Rate (mL/min): 0.2. Test Concentration (μmol/L): 100 (from 10 mmol/L DMSO solution diluted 100 folds by 50 mM Ammonium acetate in deionized water: Isopropanol (1:1)). Generic Gradient: Time (min): 0.01; 5; 13; 14; 20.

[5] = Condition A: X-VIVO15, read-out: TCell proliferation (Condition A) IC50
[6] = Condition B: X-VIVO15, 2% HSA and 0.1% AAG, read-out: TCell proliferation (Condition B) IC50

Row | SMILES | IC50 [1] [nM] | IC50 [2, 5] [nM] | IC50 [2, 6] [nM] | IC50 [3] [nM] | AAG HPLC ([4]; AAG binding by HPLC retention time (rt) on CHIRALPAK AGP column, binned) | retention time (rt) on immobilized human AAG column ([4]; human, 100 μmol/L) [min]
1 | CCCN(C)c1nc(N(CCOC)CCOC)nc2c(N3CCC(OC)CC3)nc(N(CCOC)CCOC)nc12 [Compound 68, N2,N2,N6,N6-tetrakis(2-methoxyethyl)-8-(4-methoxypiperidin-1-yl)-N4-methyl-N4-propylpyrimido[5,4-d]pyrimidine-2,4,6-triamine] | < 100 | 500 to 1000 | 500 to 1000 | < 100 |  | 
2 | COCCN(CCOC)c1nc(N2CCC(OC)CC2)c2nc(N(CCOC)CCOC)nc(N(C)Cc3cccnc3)c2n1 [Compound 81, N2,N2,N6,N6-tetrakis(2-methoxyethyl)-8-(4-methoxypiperidin-1-yl)-N4-methyl-N4-(pyridin-3-ylmethyl)pyrimido[5,4-d]pyrimidine-2,4,6-triamine] | < 100 | 100 to 500 | 500 to 1000 | < 100 |  | 
3 | COCCN(CCOC)c1nc(N2CCCC3(COC3)C2)c2nc(N(CCOC)CCOC)nc(N3CCC(OC)CC3)c2n1 [Compound 97, N2,N2,N6,N6-tetrakis(2-methoxyethyl)-4-(4-methoxypiperidin-1-yl)-8-(2-oxa-6-azaspiro[3.5]nonan-6-yl)pyrimido[5,4-d]pyrimidine-2,6-diamine] |  |  |  | < 100 | −− (rt below 6 min: −−) | 
4 | COCCN(CCOC)c1nc(N2CCC(OC)CC2)c2nc(N(CCOC)CCOC)nc(NCc3ccc(F)c(C#N)c3)c2n1 [Compound 149, 5-(((2,6-bis(bis(2-methoxyethyl)amino)-8-(4-methoxypiperidin-1-yl)pyrimido[5,4-d]pyrimidin-4-yl)amino)methyl)-2-fluorobenzonitrile] | < 100 | 100 to 500 | 100 to 500 | < 100 |  | 
5 | COCCN(CCOC)c1nc(N2CCC(OC)CC2)c2nc(N(CCOC)CCOC)nc(N(C)Cc3cccc(OC)c3)c2n1 [Compound 171, N4-(3-methoxybenzyl)-N2,N2,N6,N6-tetrakis(2-methoxyethyl)-8-(4-methoxypiperidin-1-yl)-N4-methylpyrimido[5,4-d]pyrimidine-2,4,6-triamine] | < 100 | 100 to 500 | 100 to 500 | < 100 |  | 
6 | COCCN(CCOC)c1nc(N2CCC(OC)CC2)c2nc(N(CCOC)Cc3cc(OC)c(OC)c(OC)c3)nc(N3CCC(OC)CC3)c2n1 [Compound 184, N2,N2,N6-tris(2-methoxyethyl)-4,8-bis(4-methoxypiperidin-1-yl)-N6-(3,4,5-trimethoxybenzyl)pyrimido[5,4-d]pyrimidine-2,6-diamine] | < 100 | < 100 | < 100 | < 100 |  | 
7 | COCCN(CCOC)c1nc(N2CCC(OC)CC2)c2nc(N(CCO)Cc3cc(OC)c(OC)c(OC)c3)nc(N3CCC(OC)CC3)c2n1 [Compound 186, 2-((6-(bis(2-methoxyethyl)amino)-4,8-bis(4-methoxypiperidin-1-yl)pyrimido[5,4-d]pyrimidin-2-yl)(3,4,5-trimethoxybenzyl)amino)ethanol] | < 100 | < 100 | 100 to 500 | < 100 |  | 
8 | COCCN(CCC(=O)NS(=O)(=O)N(C)C)c1nc(N2CCN(C)C(=O)C2)c2nc(N(CCOC)CCOC)nc(N3CCC(OC)CC3)c2n1 [Compound 334, 3-((6-(bis(2-methoxyethyl)amino)-8-(4-methoxypiperidin-1-yl)-4-(4-methyl-3-oxopiperazin-1-yl)pyrimido[5,4-d]pyrimidin-2-yl)(2-methoxyethyl)amino)-N-(N,N-dimethylsulfamoyl)propanamide] |  |  |  | 500 to 1000 |  | 
9 | COCCN(CCOC)c1nc(N2CCc3oc(C)nc3C2)c2nc(N(CCOC)Cc3ccc(C(=O)O)cc3)nc(N3CCN(C)C(=O)C3)c2n1 [Compound 335, 4-(((6-(bis(2-methoxyethyl)amino)-4-(4-methyl-3-oxopiperazin-1-yl)-8-(2-methyl-6,7-dihydrooxazolo[4,5-c]pyridin-5(4H)-yl)pyrimido[5,4-d]pyrimidin-2-yl)(2-methoxyethyl)amino)methyl)benzoic acid] |  |  |  | < 100 |  | 
10 | COCCN(Cc1ccc(C(=O)O)c(F)c1)c1nc(N2CCN(C)C(=O)C2)c2nc(N(CCOC)CCOC)nc(N3CCC(OC)CC3)c2n1 [Compound 336, 4-(((6-(bis(2-methoxyethyl)amino)-8-(4-methoxypiperidin-1-yl)-4-(4-methyl-3-oxopiperazin-1-yl)pyrimido[5,4-d]pyrimidin-2-yl)(2-methoxyethyl)amino)methyl)-2-fluorobenzoic acid] |  |  |  | < 100 |  | 
11 | COCCN(Cc1ccc(C(=O)O)c(OC)c1)c1nc(N2CCN(C)C(=O)C2)c2nc(N(CCOC)CCOC)nc(N3CCC(OC)CC3)c2n1 [Compound 337, 4-(((6-(bis(2-methoxyethyl)amino)-8-(4-methoxypiperidin-1-yl)-4-(4-methyl-3-oxopiperazin-1-yl)pyrimido[5,4-d]pyrimidin-2-yl)(2-methoxyethyl)amino)methyl)-2-methoxybenzoic acid] |  |  |  | 100 to 500 |  | 
12 | COCCN(Cc1ccc(C(=O)O)c(C)c1)c1nc(N2CCN(C)C(=O)C2)c2nc(N(CCOC)CCOC)nc(N3CCC(OC)CC3)c2n1 [Compound 338, 4-(((6-(bis(2-methoxyethyl)amino)-8-(4-methoxypiperidin-1-yl)-4-(4-methyl-3-oxopiperazin-1-yl)pyrimido[5,4-d]pyrimidin-2-yl)(2-methoxyethyl)amino)methyl)-2-methylbenzoic acid] |  |  |  | < 100 |  | 
13 | COCCN(Cc1ccc(C(=O)O)c(C(F)(F)F)c1)c1nc(N2CCN(C)C(=O)C2)c2nc(N(CCOC)CCOC)nc(N3CCC(OC)CC3)c2n1 [Compound 339, 4-(((6-(bis(2-methoxyethyl)amino)-8-(4-methoxypiperidin-1-yl)-4-(4-methyl-3-oxopiperazin-1-yl)pyrimido[5,4-d]pyrimidin-2-yl)(2-methoxyethyl)amino)methyl)-2-(trifluoromethyl)benzoic acid] |  |  |  | < 100 |  | 
14 | COCCN(Cc1cc(F)c(C(=O)O)c(F)c1)c1nc(N2CCN(C)C(=O)C2)c2nc(N(CCOC)CCOC)nc(N3CCC(OC)CC3)c2n1 [Compound 340, 4-(((6-(bis(2-methoxyethyl)amino)-8-(4-methoxypiperidin-1-yl)-4-(4-methyl-3-oxopiperazin-1-yl)pyrimido[5,4-d]pyrimidin-2-yl)(2-methoxyethyl)amino)methyl)-2,6-difluorobenzoic acid] |  |  |  | < 100 |  | 
15 | CC(C)NCC(O)COc1cccc2ccccc12 (stereo not shown) [Propranolol, reference compound] |  |  |  |  |  | 14.05
